Converted amounts (≈) assume the structure as drawn. “And” between values parts separate entries of the source, which are not always exact repeats. Equal entries are not always repeated.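 Following 48 hours of exposure in 96-well plates, responses at five concentrations were used to interpolate endpoints linearly. GI50 marks 50% less growth. TGI: total growth inhibition.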 The source made the active and inactive calls. Cut-off read from the data, not from the text of the source: active = GI50 below about 0.43 µM; inactive = the rest. Where a SMILES comes first, the peptide text is derived from it. Bridges are numbered along the chain shown (N, C = ends).
What was measured:
Test in all cases: DTP human tumour cell line panel, 48 h
KM20L2 colon = test system: KM20L2 colon
DLD-1 colon = test system: DLD-1 colon
M19-MEL melanoma = test system: M19-MEL melanoma
LXFL 529 NSCLC = test system: LXFL 529 NSCLC
HOP-18 NSCLC = test system: HOP-18 NSCLC
DMS 114 small cell lung = test system: DMS 114 small cell lung
DMS 273 small cell lung = test system: DMS 273 small cell lung
SNB-78 CNS = test system: SNB-78 CNS
MDA-N = test system: MDA-N

Row | Compound | TGI (KM20L2 colon) | TGI (DLD-1 colon) | TGI (M19-MEL melanoma) | TGI (LXFL 529 NSCLC) | TGI (HOP-18 NSCLC) | TGI (DMS 114 small cell lung) | TGI (DMS 273 small cell lung) | TGI (SNB-78 CNS) | TGI (MDA-N) | other results
1 | CC1=C(C(=O)Nc2ccccc2C)C(c2ccccc2O)C(C(=O)Nc2ccccc2C)=C(C)N1 | 45.6 µM | 36.1 µM | 52 µM | 51 µM | 55.6 µM | 50.4 µM | 35.2 µM | 74.7 µM | – | –
2 | C[C@H]1[C@H](C)CC[C@]2(C(=O)O)CCC3(COC(=O)/C=C/c4ccc(O)cc4)C(=CCC4[C@@]5(C)CC[C@H](O)C(C)(C)C5CC[C@]43C)[C@H]12 (some centres undefined) | 16.4 µM | 15.8 µM | > 100 µM | 24.8 µM | 33.9 µM | 32 µM | 25.9 µM | > 100 µM | – | –
3 | Cc1cc(=O)n2c(cc3cccccc32)n1 | > 100 µM | – | – | > 100 µM | – | – | > 100 µM | > 100 µM | – | –
4 | CC(/C=C1\CCC(CN(C)C)C1=O)c1cccc(Br)c1 (centres undefined) | 45.4 µM | 35.1 µM | 50.2 µM | 17.1 µM | 33.9 µM | 54.8 µM | – | 44.7 µM | – | –
5 | Cc1ccc(-c2nc3ccccc3c(=O)n2NC2OC(CO)C(O)C(O)C2O)cc1 (centres undefined) | > 100 µM | – | > 100 µM | > 100 µM | > 100 µM | > 100 µM | > 100 µM | > 100 µM | – | –
6 | CN(CO)c1nc(N(C)CO)nc(N(C)CO)n1 | 25.2 µM | 97.2 µM | 17.2 µM | – | > 55.6 µM | – | 25.8 µM | 25.3 µM | 39.3 µM and 63.4 µM | GI50 (MDA-N): 24.8 µM
7 | CCCc1nn(C)c(CCC(=O)N(Cc2ccccc2)Cc2ccccc2)c1CC | > 100 µM | > 100 µM | > 100 µM | > 100 µM | > 100 µM | > 100 µM | – | > 100 µM | – | –
8 | O=C(CC1(O)C(=O)Nc2c(Cl)cc(Cl)cc21)c1ccc([N+](=O)[O-])cc1 (centres undefined) | > 100 µM | > 66 µM | 22 µM | > 51.5 µM | > 100 µM | 53.1 µM | > 100 µM | > 78.9 µM | – | –
9 | C=C(C)C1CC=C(C)C(O)([C@@]2(O)C[C@H](C(=C)C)CC=C2C)C1 (some centres undefined) | – | > 100 µM | 38.1 µM | > 100 µM | – | > 100 µM | 39.9 µM | > 100 µM | – | –
10 | COC(=O)/C(=N\Nc1nc(=S)[nH]n1N)C(C#N)c1ccc(Cl)cc1 (centres undefined) | > 100 µM | > 100 µM | > 100 µM | > 100 µM | > 100 µM | > 100 µM | > 100 µM | > 100 µM | – | –
11 | Nc1nc(N)c(CCCCc2ccccc2)c(/C=C/c2ccc([N+](=O)[O-])cc2)n1 | 20.6 µM | > 100 µM | 30.3 µM | – | – | 4.29 µM | – | 12.8 µM | – | –
12 | O=[N+]([O-])c1cc(C(F)(F)F)cc2n[se]nc12 | 16.4 µM | 8.93 µM | 10.6 µM | 3.14 µM | 8.96 µM | 5.92 µM | 27.3 µM | 25.9 µM | 3.85 µM | –
13 | CC(C)c1ccc(C(O)(C(=O)O)c2ccc(C(C)C)cc2)cc1 | – | – | – | – | – | – | – | – | > 100 µM | –
14 | CC(=O)CCn1[nH]c(=O)c(Cl)c(Cl)c1=O | > 100 µM | > 100 µM | > 100 µM | > 100 µM | > 100 µM | > 100 µM | > 100 µM | > 100 µM | – | –
15 | CC1(C)C2=CCCC(=O)[C@@]2(C)CC[C@@H]1O | > 100 µM | > 100 µM | > 100 µM | > 100 µM | > 100 µM | > 100 µM | > 100 µM | > 100 µM | – | –
16 | CCCCCC1CC=CC(NC(=O)OCc2ccccc2)C1/C=C/CCCC1OCCO1 (centres undefined) | > 100 µM | > 100 µM | > 100 µM | > 100 µM | > 100 µM | > 100 µM | > 100 µM | > 100 µM | – | –
17 | CC(C)c1ccc(C(c2c(O)c3ccccc3oc2=O)c2c(O)c3ccccc3oc2=O)cc1 | – | – | – | – | – | – | – | – | 46.8 µM | –
18 | CC1(C)C=C(N2CCN(C3=CC(C)(C)NC(C)(C)C3)CC2)CC(C)(C)N1 | > 100 µM | > 100 µM | > 100 µM | > 100 µM | > 100 µM | > 100 µM | > 100 µM | > 100 µM | – | –
19 | CCCCCCCCCCCCCP(=O)(OC)OC | 42.8 µM | 30.5 µM | 33.4 µM | 33.5 µM | 32.9 µM | 37 µM | 33.1 µM | 35.5 µM | – | –

Row | Compound | TGI (KM20L2 colon) | TGI (DLD-1 colon) | TGI (M19-MEL melanoma) | TGI (LXFL 529 NSCLC) | TGI (HOP-18 NSCLC) | TGI (DMS 114 small cell lung) | TGI (DMS 273 small cell lung) | TGI (SNB-78 CNS) | TGI (MDA-N) | other results
20 | C=C1C(=O)O[C@H]2C3OC3(C)CC/C=C(/C(=O)OC)[C@@H](OC(C)=O)[C@H](OC(=O)C3(C)OC3C)[C@H]12 (some centres undefined) | – | – | 5.17 µg/mL | – | – | 1.8 µg/mL | 3.73 µg/mL | 6.79 µg/mL | 3.46 µM | outcome (KM20L2 colon): inactive; GI50 (M19-MEL melanoma): 1.94 µg/mL; outcome (LXFL 529 NSCLC): inactive; outcome (HOP-18 NSCLC): inactive; GI50 (DMS 114 small cell lung): 0.604 µg/mL (≈ 1.3 µM); GI50 (DMS 273 small cell lung): 1.1 µg/mL; GI50 (SNB-78 CNS): 1.81 µg/mL
21 | C=C1CCCC2OC(OC)CCC12 (centres undefined) | > 100 µM | > 100 µM | > 100 µM | > 100 µM | > 100 µM | > 100 µM | > 100 µM | > 100 µM | – | –
22 | CCCCCCCCC1C(C)c2c([nH]c3ccccc23)C2C(=O)N(c3ccccc3)C(=O)C21 (centres undefined) | 31.7 µM | 45.2 µM | 31.9 µM | 30.1 µM | – | 23.4 µM | 22.2 µM | 29.8 µM | – | –
23 | CCCCCCCCCCCCCC(=O)NO | 26 µM | > 94.8 µM | 56.3 µM | 38.7 µM | 81.6 µM | 27.2 µM | 27.3 µM | > 95 µM | > 100 µM | –
24 | CSC(=NC(=O)c1ccccc1)SCCSC(=NC(=O)c1ccccc1)SC | > 100 µM | > 100 µM | > 100 µM | > 100 µM | – | > 100 µM | > 100 µM | > 100 µM | – | –
25 | O=C(CO)CC(=O)C(=O)Nc1cccc(C(F)(F)F)c1 | > 100 µM | > 100 µM | – | > 100 µM | – | – | > 100 µM | – | – | –
26 | CCC1=CCC(P(=O)(c2ccccc2)c2ccccc2)CC1C (centres undefined) | > 100 µM | – | > 100 µM | > 100 µM | > 100 µM | > 100 µM | > 100 µM | > 100 µM | – | –
27 | O=C(O)C1C2C=CC(O2)C1C(=O)NCc1ccncc1 (centres undefined) | – | – | – | – | – | – | – | – | > 100 µM | –
28 | CCc1cc2c(Nc3ccccc3)c3c(nc2s1)CCCC3 | > 100 µM | > 100 µM | > 100 µM | > 100 µM | > 100 µM | > 100 µM | > 100 µM | > 100 µM | – | –
29 | COc1ccc(C(=O)Nc2ccn(CCOC(=O)c3ccc(OC)cc3)c(=O)n2)cc1 | > 100 µM | > 100 µM | > 100 µM | > 100 µM | > 100 µM | > 100 µM | > 100 µM | > 100 µM | – | –
30 | CCC(C)C1NC(=O)C(CC(C)C)NC(=O)C(C(C)C)NC(=O)C2CSSCC(NC1=O)C(=O)N2 (centres undefined) (cyclo(CCVLI); disulfide 1-2; configuration not given here) | – | – | – | – | – | – | – | – | 0.339 µM | –
31 | O=C(O)CC(S)C(=O)O.[Li+].[Sb] (centres undefined) | – | – | – | – | – | – | – | – | > 100 µM | GI50 (MDA-N): > 100 µM
32 | COc1ccccc1/C=C1\CCC(CN2CCOCC2)C1=O (centres undefined) | 32.6 µM | 18.1 µM | 18 µM | 9.34 µM | 31.8 µM | 35.6 µM | 28.4 µM | 48.2 µM | 26.9 µM | –
33 | CC(=O)OC(C)(C)C[N+](=O)[O-] | > 100 µM | > 100 µM | > 100 µM | > 100 µM | – | > 100 µM | > 100 µM | – | – | –
34 | CSc1nc(SC)c2c(C)c(Br)[nH]c2n1 | – | – | – | – | – | – | – | – | > 100 µM | –
35 | CC(O)(c1ccc(OCCC[N+](C)(C)C)cc1)C(C)(O)c1ccc(OCCC[N+](C)(C)C)cc1 (centres undefined) | > 100 µM | > 100 µM | – | > 100 µM | > 100 µM | > 100 µM | > 100 µM | > 100 µM | – | –
36 | CCc1nc(N)nc(N)c1-c1ccc(N(C)Cc2ccccc2)c([N+](=O)[O-])c1 | – | – | – | – | – | – | – | – | 19.1 µM | –
37 | CC[C@@]1(O)C(=O)OCc2c1cc1n(c2=O)Cc2cc3cccc(N)c3nc2-1 | > 100 µM | > 100 µM | > 100 µM | > 100 µM | – | – | 8.48 µM | > 100 µM | – | GI50 (KM20L2 colon): 26.2 µM; GI50 (DLD-1 colon): > 100 µM; GI50 (M19-MEL melanoma): 13.1 µM; GI50 (LXFL 529 NSCLC): > 100 µM; GI50 (DMS 273 small cell lung): 1780 nM; GI50 (SNB-78 CNS): > 100 µM
38 | COC(=O)/C=C(C)/C=C/c1c(C)c(C(C)=O)c(C)n1C | > 100 µM | > 100 µM | > 100 µM | > 100 µM | > 100 µM | – | > 100 µM | > 100 µM | – | –
